From paper PMC7728344, “Pharmacokinetic Characterization of (Poly)phenolic Metabolites in Human Plasma and Urine after Acute and Short-Term Daily Consumption of Mango Pulp” (Molecules, 2020)
Where two headings read alike, the source gives them in different places. One block for each compound: values may come before it.

Legend:
[1] = Concentration of (poly)phenolic metabolites in fasting urine at baseline, 24 h after single MP beverage and 15th day after 14-day MP intake (UHPLC-QQQ-MS); settings: for concentration at 15 day / concentration at 0 h / concentration at 24 h: human, urine, oral; for concentration at 0 h / concentration at 24 h: 500 g
From the text: The acute trial was a randomized, 3 arm, within-subject crossover study design (Figure 5A). The trial initiated with 3 days of food record collection to assess background (pre-study) dietary intake followed by counseling to adhere to a diet devoid of mango or its parts and relatively low in polyphenol-rich beverages/foods, which was maintained throughout the duration of the trial. […] In general, subjects were encouraged to follow their “usual” diet with the exception of foods/beverages that may interfere with the outcomes of the study. Food intake diaries and, phone call and email reminders helped subjects maintain compliance throughout the study period. After an initial 7-day run-in period on the limited polyphenol diet, subjects were assigned to a randomization sequence providing 1 of 3 study test beverages (recipes provided in Appendix A, Table A3) on three separate days in a random order: MP (500 g), MP (500 g) + VC (100 mg) or VC (100 mg) beverages. On each study day subjects arrived fasted and well hydrated. After standard admission procedures were completed (e.g., review of compliance with dietary requirements for 3 days prior to study day, dinner meal intake, usual sleep patterns), a catheter was placed by a registered nurse in subjects’ non-dominant arm and a fasting/baseline blood sample was collected (0 h). Subjects were provided with a standard breakfast meal 2 h after the study beverages. The breakfast meal was comprised of a buttermilk biscuit with butter and jelly, and scrambled egg white with shredded white cheddar cheese. After the 6 h blood collection, subjects ate a low polyphenol lunch consisting of dry roasted peanuts and fresh peeled cucumber with ranch dressing (Appendix A, Table A3).
Spot urine samples were collected in urine collection cups, immediately placed on ice and then aliquoted into individual cryovials. All the samples were stored at −80 °C until analysis.
A 14-day feeding trial was conducted with the MP only to study the effect of repetitive intake of MP on (poly)phenolic metabolite profiles. Upon completion of the acute trial, subjects were instructed to continue on the low polyphenolic diet for 2 weeks while consuming MP beverages (provided by CNRC) daily in the morning (250 g MP + 50 g water) and evening (250 g MP + 50 g water). On day 14, subjects consumed both beverages (500 g of MP in total) in the morning and reported to the CNRC on the 15th day after an overnight fast to provide a fasting blood and urine sample (Figure 5B). Blood and urine samples were collected as described above and stored at −80 °C until analysis.
The supernatant was collected and filtered through 0.2 µm polypropylene syringe filter before HPLC analysis.
The ESI conditions were the same as those used in the UHPLC-Q-TOF analysis. The quantification of the compounds was conducted by multiple-reaction monitoring (MRM) transitions. Spectra were recorded in both positive- and negative-ion mode with capillary voltage of 4500 V and drying gas flow rate of 9 L/min at 200 °C. The sheath gas temperature and flow rate were 300 °C and 11 L/min, respectively. Standards were optimized for collision energies, fragmentor voltages and MRM transitions using Mass Hunter Optimizer. The MRM transition for metabolites were created based on the results from UHPLC-Q-TOF-MS. Standards for plasma analysis were prepared in blank plasma (charcoal-stripped human plasma obtained from Bioreclamation IVT) for matrix match and for urine analysis were prepared in SMP.
The flow rate was maintained at 0.4 mL/min and the injection volume was 5 μL. The mobile phase consisted of acidified water (0.1% formic acid) (A) and acidified acetonitrile (0.1% formic acid) (B). The gradient for the separation of compounds was as follows: 5 to 5% B from 0 to 1 min; 10% B at 3 min; 15% B at 7 min; 15% B at 9 min; 20% B at 10 min; 20% B at 11 min; 25% B at 12 min; 30% B at 13 min; 30% B at 14 min; 95% B at 15 min; and back to 5% B at 16 min.

clinical = format: in vivo, human; design: AUC0–24h: concentration or dose not given beside the values
Experimental: SPE procedure was conducted to extract and concentrate the (poly)phenolic compounds and their metabolites from the plasma samples. Briefly, plasma samples were thawed on ice and 500 µL plasma was diluted with 1.5 mL of 0.1% formic acid in water with addition of internal standards (2-methylhippuric acid (2 ng/mL), phloridizin (1 ng/mL)) before being loaded on preconditioned SPE cartridges. The cartridges were washed with 0.1% formic acid in water (1 mL) after loading with plasma samples. The elution of the compounds was achieved by 0.1% formic acid in methanol (1 mL) and the eluent was dried under nitrogen gas at room temperature. […] Supernatant was collected in amber HPLC vials before analysis.
The absorption and elimination of 11 major mango metabolites over 24 h was determined after MP, MP + VC, and VC intake. The plasma concentration/area at each time point was determined by the mean of 13 subjects. The time vs. concentration curves and the time vs. area curves were created using GraphPad Prism (version 8.2.1). […] Tmax is the time (h) when Cmax was achieved. Wilcoxon signed-rank test was used for Tmax analysis due to non-normal distribution. Area under the plasma concentration time curve (AUC0−24h, nmol·h/L) was calculated by the linear trapezoidal method using Microsoft Excel 2013, version 15 [63]. […]

[2] = human plasma, 0−24 h, after VC (vitamin C 100 mg) beverage, mean ± standard error, read-out: Cmax
[3] = human plasma, after VC beverage, mean ± standard error
[4] = human plasma, after MP + VC beverage, mean ± standard error

concentration at 15 day [1]: 300 ± 100 nM
concentration at 0 h [1]: 300 ± 100 nM
concentration at 24 h [1]: 200 ± 100 nM
SMILES: O=C(O)c1cccc(O)c1O [2,3-Dihydroxybenzoic acid]

concentration at 15 day [1]: 7900 ± 2700 nM
concentration at 0 h [1]: 6700 ± 1600 nM
concentration at 24 h [1]: 4900 ± 1000 nM
SMILES: O=C(O)c1cc(O)ccc1O [2,5-Dihydroxybenzoic acid]

concentration at 15 day [1]: 800 ± 200 nM
concentration at 0 h [1]: 2400 ± 700 nM
concentration at 24 h [1]: 1100 ± 300 nM
SMILES: O=C(O)c1ccc(O)c(O)c1 [3,4-Dihydroxybenzoic acid]

concentration at 15 day [1]: 3800 ± 400 nM
concentration at 0 h [1]: 8000 ± 1600 nM
concentration at 24 h [1]: 4500 ± 800 nM
SMILES: O=C(O)Cc1ccc(O)c(O)c1 [3,4-Dihydroxyphenylacetic acid]

Concentration in fasting urine, Mean ± std Error, 0 h (Fasting) ([1]; in vivo): 3100 ± 800 nM
Concentration in fasting urine, Mean ± std Error, 15 Days (Fasting) ([1]; in vivo): 4400 ± 1900 nM
Concentration in fasting urine, Mean ± std Error, 24 h (Fasting) ([1]; in vivo): 2000 ± 300 nM
SMILES: O=C(O)CCc1cccc(O)c1 [3-Hydroxyphenylpropanoic acid]

concentration at 15 day [1]: 5400 ± 800 nM
concentration at 0 h [1]: 6100 ± 1000 nM
concentration at 24 h [1]: 5900 ± 900 nM
SMILES: O=C(O)c1ccc(O)cc1 [4-Hydroxybenzoic acid]

Concentration in fasting urine, Mean ± std Error, 0 h (Fasting) ([1]; in vivo): 4200 ± 1300 nM
Concentration in fasting urine, Mean ± std Error, 15 Days (Fasting) ([1]; in vivo): 3000 ± 900 nM
Concentration in fasting urine, Mean ± std Error, 24 h (Fasting) ([1]; in vivo): 2600 ± 600 nM
SMILES: O=C(O)Cc1ccc(O)cc1 [4-Hydroxyphenylacetic acid]

Concentration in fasting urine, Mean ± std Error, 0 h (Fasting) ([1]; in vivo): 2000 ± 1000 nM
Concentration in fasting urine, Mean ± std Error, 15 Days (Fasting) ([1]; in vivo): 1200 ± 400 nM
Concentration in fasting urine, Mean ± std Error, 24 h (Fasting) ([1]; in vivo): 1500 ± 900 nM
SMILES: Cc1ccc(C(=O)NCC(=O)O)cc1 [4-Methylhippuric acid]

Concentration in fasting urine, Mean ± std Error, 24 h (Fasting) ([1]; human fasting urine, 24 h after single-time MP beverage intake): Not detected
concentration at 15 day [1]: 100 nM
concentration at 0 h [1]: 100 nM
SMILES: O=C(O)/C=C/c1ccc(O)c(O)c1 [Caffeic acid]

concentration at 15 day [1]: 15100 ± 4000 nM
concentration at 0 h [1]: 18700 ± 12200 nM
concentration at 24 h [1]: 15700 ± 4100 nM
SMILES: Oc1ccccc1O [Catechol]

concentration at 15 day [1]: 200 nM
concentration at 0 h [1]: 200 ± 100 nM
concentration at 24 h [1]: 200 nM
SMILES: O=Cc1ccc(O)cc1 [Compound 4-Hydroxybenzaldehyde]

Cmax (clinical; human, in vivo): 13.4 ± 1.9 nM
Tmax (clinical; human, in vivo): 2.4 ± 0.3 h
Cmax (clinical; human, in vivo, 100 mg): 2.1 ± 0.3 nM
difference in plasma concentrations/areas after MP + VC beverage compared to MP beverage alone (clinical; in vivo): not statistically significant
time within which absorbed (clinical; in vivo): 1 to 2 h
SMILES: O=C(O[C@@H]1O[C@H](CO)[C@@H](O)[C@H](O)[C@H]1O)c1cc(O)c(O)c(O)c1 [Compound C2]

Cmax (clinical; [2]): 2560 ± 894 nM
AUC0–24h (clinical; [3]): 5.5049 ± 1.7634 µM·h
AUC0–24h (clinical; human, in vivo): 18.8521 ± 3.4916 µM·h
Cmax (clinical; human, in vivo): 10000 ± 1780 nM
Tmax (clinical; human, in vivo): 7.3 ± 0.6 h
SMILES: O=S(=O)(O)Oc1cccc(O)c1O [Compound C8]

SMILES: O=C(O)[C@H]1O[C@@H](Oc2ccccc2O)[C@H](O)[C@@H](O)[C@@H]1O [Compound C10, catechol glucuronide]
Cmax (clinical; human plasma, 0−24 h, after MP (mango pulp 500 g) beverage, mean ± standard error, n = 13, read-out: Cmax): 472 ± 270 nM
Cmax (clinical; human plasma, 0−24 h, after MP + VC (mango pulp 500 g + vitamin C 100 mg) beverage, mean ± standard error, read-out: Cmax): 186 ± 45.8 nM
Cmax (clinical; [2]): 10.6 ± 3.2 nM
AUC0–24h (clinical; [4]): 0.4833 ± 0.108 µM·h
Tmax (clinical; [4]): 8.3 ± 0.4 h
AUC0–24h (clinical; human plasma, after MP beverage, linear trapezoidal method, mean ± standard error): 1.8309 ± 1.391 µM·h
Tmax (clinical; human plasma, after MP beverage, mean ± standard error): 8.0 ± 0.6 h
AUC0–24h (clinical; [3]): 0.0448 ± 0.0051 µM·h
